Experimental data published in publication PMC3020970, “K70Q Adds High-Level Tenofovir Resistance to “Q151M Complex” HIV Reverse Transcriptase through the Enhanced Discrimination Mechanism” (PLoS ONE, 2011).
Read-outs that look alike come from different tables or passages of the source.

Assays:
Type in all cases: cell-based
[1] = tested on: HIV-1 NL4-3 strain (WT); assay: microbe, parasite or virus in culture
Protocol: (§1) Susceptibilities to various RT inhibitors were determined using the MAGIC-5 cells which are HeLa cells stably transfected with a β-galactosidase gene under the control of an HIV long terminal repeat promoter, and with vectors that express the CD4 receptor and the CCR5 co-receptor under the control of the CMV promoter as described previously. Briefly, MAGIC-5 cells were infected with diluted virus stock (100 blue forming units) in the presence of increasing concentrations of RT inhibitors, cultured for 48 h, fixed, and stained with X-Gal (5-bromo-4-chloro-3-indolyl-β-D-galacto-pyranoside). The stained cells were counted under a light microscope.

[2] = tested on: HIV-1 WT; assay: Single-cycle drug susceptibility assay (MAGIC-5 cells), recombinant WT clone; conditions: Human immunodeficiency virus 1, Table S2
Protocol: (§2) The NL4-3-based molecular clone was constructed by replacing the pol-coding region with the HIV-1 BH10 strain. […] Each molecular clone was transfected into COS-7 cells. Cells were grown for 48 h, and culture supernatants were harvested and stored at −80°C until use.
as §1

[3] = tested on: HIV-1 Q151Mc/K70G; assay: Single-cycle drug susceptibility assay (MAGIC-5 cells)
Protocol: as §2, §1

[4] = tested on: HIV-1 Q151Mc/K70T; assay: as above
Protocol: as §2, §1

[5] = tested on: HIV-1 Q151Mc/K70R; assay: as above
Protocol: as §2, §1

[6] = tested on: HIV-1 Q151Mc; assay: as above; conditions: Human immunodeficiency virus 1, MAGIC-5
Protocol: as §2, §1

[7] = tested on: HIV-1 K70Q; assay: as above; conditions: Human immunodeficiency virus 1, MAGIC-5; K70Q
Protocol: as §2, §1

[8] = tested on: HIV-1 K70N; assay: as above
Protocol: as §2, §1

[9] = tested on: HIV-1 Q151Mc/K70N; assay: as above
Protocol: as §2, §1

[10] = tested on: HIV-1 K70T; assay: as above
Protocol: as §2, §1

[11] = tested on: HIV-1 K70R; assay: as above
Protocol: as §2, §1

[12] = tested on: HIV-1 Q151Mc/K70Q; assay: as above
Protocol: as §2, §1

[13] = tested on: HIV-1 K70E; assay: as above
Protocol: as §2, §1

[14] = tested on: HIV-1 Q151Mc/K70E; assay: as above
Protocol: as §2, §1

[15] = tested on: HIV-1 K70G; assay: as above
Protocol: as §2, §1

[16] = tested on: HIV-1 clinical isolate 1 (Q151Mc-containing); assay: Single-cycle drug susceptibility assay (MAGIC-5 cells), clinical isolate 1; conditions: Human immunodeficiency virus 1; clinical isolate 1, MAGIC-5 cells
Protocol: (§3) HIV was isolated from fresh plasma immediately after collection of clinical samples from study participants at the outpatient clinic of the AIDS Clinical Center (ACC), International Medical Center of Japan. The Institutional Review Board approved this study (IMCJ-H13-80) and a written consent was obtained from all participants.
as §1

[17] = tested on: HIV-1 clinical isolate 2 (Q151Mc + K70Q); assay: Single-cycle drug susceptibility assay (MAGIC-5 cells), clinical isolate 2; conditions: Human immunodeficiency virus 1; clinical isolate 2, MAGIC-5 cells
Protocol: as §3, §1

[18] = Human immunodeficiency virus 1, NL43, WT, MAGIC-5 cells, Table S1, read-out: EC50
[19] = Human immunodeficiency virus 1, NL43, MAGIC-5

Nc1ccn([C@@H]2CS[C@H](CO)O2)c(=O)n1 [3TC, lamivudine]
EC50 [1, 18]: 1.4 ± 0.15 µM | EC50 [2]: 1.4 ± 0.16 µM | EC50 ([3]; Human immunodeficiency virus 1, MAGIC-5, Q151Mc/K70G): 46 ± 2.5 µM | Fold increase in EC50 compared to HIV-1 Q151Mc ([3]; Q151Mc/K70G vs Q151Mc): (1.6) fold | EC50 ([4]; Human immunodeficiency virus 1, MAGIC-5, Q151Mc/K70T): 12 ± 2.5 µM | Fold increase in EC50 compared to HIV-1 Q151Mc ([4]; Q151Mc/K70T vs Q151Mc): (0.4) fold | EC50 ([5]; Human immunodeficiency virus 1, MAGIC-5, Q151Mc/K70R): 16 ± 1.5 µM | Fold increase in EC50 compared to HIV-1 Q151Mc ([5]; Q151Mc/K70R vs Q151Mc): (0.6) fold | EC50 [6]: 29 ± 3.2 µM | EC50 [7]: 4.6 ± 0.53 µM | EC50 ([8]; Human immunodeficiency virus 1, MAGIC-5, K70N): 2.2 ± 0.25 µM | Fold increase in EC50 compared to HIV-1 WT ([8]; K70N vs WT): (1.6) fold | EC50 ([9]; Human immunodeficiency virus 1, MAGIC-5, Q151Mc/K70N): 15 ± 1.7 µM | Fold increase in EC50 compared to HIV-1 Q151Mc ([9]; Q151Mc/K70N vs Q151Mc): (0.5) fold | EC50 ([10]; Human immunodeficiency virus 1, MAGIC-5, K70T): 4.3 ± 0.29 µM | Fold increase in EC50 compared to HIV-1 WT ([10]; K70T vs WT): (3.1) fold | EC50 ([11]; Human immunodeficiency virus 1, MAGIC-5, K70R): 2.5 ± 0.46 µM | Fold increase in EC50 compared to HIV-1 WT ([11]; K70R vs WT): (1.8) fold | EC50 ([12]; Human immunodeficiency virus 1, MAGIC-5, Q151Mc/K70Q): 81 ± 0.08 µM | Fold increase in EC50 compared to HIV-1 Q151Mc ([12]; Q151Mc/K70Q vs Q151Mc): (2.8) fold | EC50 ([13]; Human immunodeficiency virus 1, MAGIC-5, K70E): 16 ± 2.1 µM | Fold increase in EC50 compared to HIV-1 WT ([13]; K70E vs WT): (11) fold | EC50 ([14]; Human immunodeficiency virus 1, MAGIC-5, Q151Mc/K70E): 11 ± 1.4 µM | Fold increase in EC50 compared to HIV-1 Q151Mc ([14]; Q151Mc/K70E vs Q151Mc): (0.4) fold | EC50 ([15]; Human immunodeficiency virus 1, MAGIC-5, K70G): 26 ± 0.58 µM | Fold increase in EC50 compared to HIV-1 WT ([15]; K70G vs WT): (19) fold

Cc1cn([C@H]2C[C@H](N=[N+]=[N-])[C@@H](CO)O2)c(=O)[nH]c1=O [AZT, zidovudine]
EC50 [1, 19]: 0.023 ± 0.002 µM

O=C1Nc2ccc(Cl)cc2[C@@](C#CC2CC2)(C(F)(F)F)O1 [EFV, efavirenz]
EC50 [16]: > 1 µM | EC50 [17]: > 1 µM | EC50 [1, 18]: 0.002 ± 0.0001 µM

Nc1nc(=O)n([C@@H]2CS[C@H](CO)O2)cc1F [FTC, emtricitabine]
EC50 [16]: 3.5 ± 0.12 µM | EC50 [17]: 2.1 ± 0.17 µM | EC50 [1, 19]: 0.4 ± 0.03 µM
